Results on nine molecules are retold here after patent US9770026B2, “Substituted pyrimidine compound and uses thereof” (Shenyang Sinochem Agrochemicals R&D Co., Ltd., priority 2012, dated 2017).

One assay deals with cucumber downy mildew. As to the kind of experiment: protectant activity in vivo against cucumber downy mildew. Particulars: for pest or weed control at 400 µg/mL: read-out: control effect against cucumber downy mildew (%), 400 mg/L.
In a further assay the test system is carmine spider mite. Put plainly: bioactivity test against carmine spider mite, airbrush spray. In kind it is in vivo. To be noted: for control against carmine spider mite: mortality after 72 hrs. The protocol: (§1) Compounds were dissolved in mixed solvent (acetone:methanol=1:1), and diluted to required concentration with water containing 0.1% of tween 80.
(§2) Diamond back moth, armyworm, peach aphid and carmine spider mite were used as targets and the method of spraying by airbrush was used for determination of insecticidal biassays.
The method: Broadbean shoots with two true leaves in pot were taken, the healthy adults of carmine spider mite were inoculated to the leaves. The adults were counted and then sprayed with airbrush at the pressure of 0.7 kg/cm^2 and at dose of 0.5 ml. 3 replicates were set for each treatment. And then they were maintained in standard observation room. Scores were conducted and mortalities were calculated after 72 hrs.

A further assay deals with wheat powdery mildew. Put plainly: protectant activity in vivo against wheat powdery mildew. To be noted: for pest or weed control at 400 µg/mL: read-out: control effect against wheat powdery mildew (%), 400 mg/L.
The subject of assay [1] is Green peach aphids (Myzus Persicae Sulzer). As to the kind of experiment: bioactivity test against green peach aphid, airbrush foliar spray. To be noted: for control (test results against green peach aphid): death rate after 48 hrs. In kind it is in vivo. Put shortly:
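Aphids (15-30 per cabbage leaf disc) on moist filter paper were airbrush-sprayed at 10 psi, 0.5 mL, with compound from acetone:methanol (1:1) diluted in water with 0.1% tween 80. Held at 25±1 C, 60±5% RH; survivors counted after 48 hrs to give death rates.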

The test system of another assay is corn rust. Put plainly: protectant activity in vivo against corn rust. Particulars: for pest or weed control at 400 µg/mL: read-out: control effect against corn rust (%), 400 mg/L.
A further assay has as its system Diamond back moth. As to the kind of experiment: insecticidal activity against diamond back moth, airbrush spray. In kind it is in vivo. Particulars: for pest or weed control at 600 µg/mL: 600 mg/L; for control (test results against diamond back moth): 600 ppm, mortality after 72 hrs. The procedure:
as §1, §2
The method of spraying by airbrush: The cabbage leaves were made into plates of 2 cm diameter by use of punch. A test solution (0.5 ml) was sprayed by airbrush at the pressure of 0.7 kg/cm^2 to both sides of every plate. 10 Second instar larvae were put into the petri-dishes after the leaf disc air-dried and 3 replicates were set for each treatment. Then the insects were maintained in observation room (25° C., 60˜70% R.H.). Scores were conducted and mortalities were calculated after 72 hrs.

The next assay relates to armyworm. Put plainly: bioactivity test against armyworm, airbrush spray. To be noted: for control (test results against armyworm): 600 ppm, mortality after 72 h. In kind it is in vivo. The protocol:
as §1, §2
The method of spraying by airbrush: The corn leaves were made into plates of 2 cm diameter by use of punch. A test solution (0.5 ml) was sprayed by airbrush at the pressure of 0.7 kg/cm^2 to both sides of every plate. 10 Second instar larvae were put into the petri-dishes after the leaf disc air-dried and 3 replicates were set for each treatment. Then the insects were maintained in observation room (25 °C, 60˜70% R.H.). Scores were conducted and mortalities were calculated after 72 h.

The mark [2] stands for this setting: Cucumis sativus, 168 h, protectant activity.
[3] abbreviates: Triticum aestivum, 168 h, protectant activity.
[4] abbreviates: Zea mays, 168 h, protectant activity.

Molecules are shown by their SMILES.

For the molecule `FC(F)(F)c1ccc(Oc2ccc(CCNc3cc(Cl)ncn3)cc2)nc1` [CK69, reference compound], the pest or weed control at 25 µg/mL was determined as 50% in the assay on cucumber downy mildew (Cucumis sativus, 168 h, read-out: control effect against cucumber downy mildew (%), 25 mg/L, protectant activity); 0% in the assay on wheat powdery mildew (Triticum aestivum, 168 h, read-out: control effect against wheat powdery mildew (%), 25 mg/L, protectant activity); 50% in the assay on corn rust (Zea mays, 168 h, read-out: control effect against corn rust (%), 25 mg/L, protectant activity). In the assay with cucumber downy mildew (Cucumis sativus, 168 h, read-out: control effect against cucumber downy mildew (%), 50 mg/L, protectant activity), the pest or weed control at 50 µg/mL was 98%. For the same molecule, the pest or weed control at 100 µg/mL in the assay with cucumber downy mildew (Cucumis sativus, 168 h, read-out: control effect against cucumber downy mildew (%), 100 mg/L, protectant activity) worked out at 100%; with carmine spider mite (Tetranychus cinnabarinus, 72 h, 100 mg/L, contrastive test, read-out: Insecticidal activity against carmine spider mite (% )), 100%; in the assay on wheat powdery mildew (Triticum aestivum, 168 h, read-out: control effect against wheat powdery mildew (%), 100 mg/L, protectant activity) it was 0%; in assay [1] (Myzus persicae, foliar, 48 h, 100 mg/L, contrastive test, read-out: Insecticidal activity against peach aphid (%)) it was 100%; with corn rust (Zea mays, 168 h, read-out: control effect against corn rust (%), 100 mg/L, protectant activity), 90%; in the assay on Diamond back moth (72 h, 100 mg/L), 5%. Further, the pest or weed control at 400 µg/mL in the assay with cucumber downy mildew (setting [2]), in the assay with wheat powdery mildew (setting [3]) and in the assay on corn rust (setting [4]) was 100% in each case. In addition, the pest or weed control at 10 µg/mL in the assay on carmine spider mite (Tetranychus cinnabarinus, 72 h, 10 mg/L, contrastive test, read-out: Insecticidal activity against carmine spider mite (% )) came out at 4%; in assay [1] (Myzus persicae, foliar, 48 h, 10 mg/L, contrastive test, read-out: Insecticidal activity against peach aphid (%)), 70%; with Diamond back moth (72 h, 10 mg/L) it was 0%. The pest or weed control at 600 µg/mL came out at 100% in the assay on carmine spider mite (Tetranychus cinnabarinus, 72 h, 600 mg/L, contrastive test, read-out: Insecticidal activity against carmine spider mite (% )); 100% in assay [1] (Myzus persicae, foliar, 48 h, 600 mg/L, contrastive test, read-out: Insecticidal activity against peach aphid (%)); 100% in the assay on Diamond back moth (72 h). For the same molecule, the pest or weed control at 6.25 µg/mL in the assay with wheat powdery mildew (Triticum aestivum, 168 h, read-out: control effect against wheat powdery mildew (%), 6.25 mg/L, protectant activity) came out at 0%; in the assay with corn rust (Zea mays, 168 h, read-out: control effect against corn rust (%), 6.25 mg/L, protectant activity) it was 0%.
On to `COc1cc(NCCc2ccc(Oc3ncc(C(F)(F)F)cc3Cl)cc2)ncn1` [CK71, reference compound], for which the pest or weed control at 600 µg/mL was 86% in the assay on armyworm (72 h, 600 mg/L, read-out: Insecticidal activity against armyworm (%)) and 0% with Diamond back moth (72 h). Moreover, the pest or weed control at 400 µg/mL with cucumber downy mildew (setting [2]) worked out at 80%; with wheat powdery mildew (setting [3]) it was 100%; in the assay with corn rust (setting [4]) it was 0%.
Turning to `Cc1ncnc(NCCc2ccc(Oc3ccc(Cl)nn3)cc2)c1Br` [Compound I-4121], the “control (test results against armyworm)” value with armyworm was 100%. Moreover, the “protectant activity against wheat powdery mildew in vivo” value with wheat powdery mildew (400 ppm) came out at 100%. In addition, the “control (test results against green peach aphid)” value in assay [1] (10 ppm), in assay [1] (100 ppm) and in assay [1] (600 ppm) was 100% each time. In addition, the “protectant activity against corn rust in vivo” value with corn rust (400 ppm) is 100%. Further, the “control (test results against diamond back moth)” value in the assay on Diamond back moth is on record as 100%.
Take `Cc1ncnc(NCCc2ccc(Oc3ccc(C(F)(F)F)cc3Cl)cc2)c1Cl` [II-154]: the “protectant activity against cucumber downy mildew in vivo” value in the assay on cucumber downy mildew (400 ppm) was 100%. Further, the “control against carmine spider mite” value in the assay on carmine spider mite (100 ppm) and in the assay on carmine spider mite (600 ppm) was 100% in each case. In addition, the “protectant activity against wheat powdery mildew in vivo” value in the assay on wheat powdery mildew (100 ppm) and in the assay with wheat powdery mildew (400 ppm) was 100% throughout. The “control (test results against green peach aphid)” value in assay [1] (100 ppm) and in assay [1] (600 ppm) was 100% throughout. Moreover, the “control effect against corn rust (%)” value in the assay on corn rust (1.6 mg/L, protectant activity) turned out to be 50%; in the assay with corn rust (6.25 mg/L, protectant activity) it was 100%; in the assay on corn rust (25 mg/L, protectant activity), 100%; in the assay on corn rust (100 mg/L, protectant activity), 100%; in the assay on corn rust (400 mg/L, protectant activity) it was 100%. The “protectant activity against corn rust in vivo” value in the assay on corn rust (6.25 ppm), in the assay on corn rust (25 ppm), in the assay on corn rust (100 ppm) and in the assay with corn rust (400 ppm) was 100% throughout. In addition, the “control (test results against diamond back moth)” value in the assay with Diamond back moth is on record as 100%.
On to `COc1cc(CCNc2ncnc(C)c2Cl)ccc1Oc1ccc(Cl)cc1` [II-1687], for which the “protectant activity against cucumber downy mildew in vivo” value in the assay with cucumber downy mildew (50 ppm), in the assay with cucumber downy mildew (100 ppm) and in the assay on cucumber downy mildew (400 ppm) was 100% throughout. Further, the “control against carmine spider mite” value with carmine spider mite (600 ppm) was 100%. For the same molecule, the “protectant activity against wheat powdery mildew in vivo” value in the assay on wheat powdery mildew (25 ppm), in the assay with wheat powdery mildew (100 ppm) and with wheat powdery mildew (400 ppm) was 100% throughout. Moreover, the “Insecticidal activity against peach aphid (%)” value was 100% in assay [1] (10 mg/L, contrastive test); 100% in assay [1] (100 mg/L, contrastive test); 100% in assay [1] (600 mg/L, contrastive test). Besides, the “control (test results against green peach aphid)” value in assay [1] (10 ppm), in assay [1] (100 ppm) and in assay [1] (600 ppm) was 100% throughout. The “protectant activity against corn rust in vivo” value with corn rust (100 ppm) and in the assay on corn rust (400 ppm) was 100% each time. Also, the “control (test results against diamond back moth)” value in the assay on Diamond back moth was 100%.
As to `Cc1ncnc(NCCc2ccc(Oc3cccc(Cl)c3)nc2)c1Cl` [III-6], the “control (test results against armyworm)” value with armyworm was found to be 100%. Further, in the assay on wheat powdery mildew (400 ppm), the “protectant activity against wheat powdery mildew in vivo” value was determined as 100%. Moreover, the “control (test results against green peach aphid)” value in assay [1] (600 ppm) was found to be 100%. The “protectant activity against corn rust in vivo” value with corn rust (100 ppm) and in the assay with corn rust (400 ppm) was 100% each time. Besides, in the assay on Diamond back moth, the “control (test results against diamond back moth)” value is 100%.
On to `Cc1cc(Cl)ccc1Oc1ccc(CCNc2ncnc(C)c2Cl)cn1` [III-110], for which the “control effect against cucumber downy mildew (%)” value in the assay on cucumber downy mildew (25 mg/L, protectant activity) is recorded as 100%; with cucumber downy mildew (50 mg/L, protectant activity) it was 100%; with cucumber downy mildew (100 mg/L, protectant activity), 100%; with cucumber downy mildew (400 mg/L, protectant activity), 100%. Besides, the “protectant activity against cucumber downy mildew in vivo” value in the assay on cucumber downy mildew (25 ppm), with cucumber downy mildew (50 ppm), in the assay with cucumber downy mildew (100 ppm) and with cucumber downy mildew (400 ppm) was 100% in each case. Also, the “control against carmine spider mite” value in the assay with carmine spider mite (600 ppm) was 100%. Further, the “protectant activity against wheat powdery mildew in vivo” value in the assay with wheat powdery mildew (400 ppm) amounted to 100%. Also, the “control (test results against green peach aphid)” value in assay [1] (100 ppm) and in assay [1] (600 ppm) was 100% in each case. The “protectant activity against corn rust in vivo” value in the assay with corn rust (100 ppm) and in the assay on corn rust (400 ppm) was 100% throughout. For the same molecule, the “control (test results against diamond back moth)” value in the assay on Diamond back moth turned out to be 100%.
`CCc1ncnc(NCCc2ccc(Oc3ccccc3Cl)nc2)c1Cl` [III-185]: the “control against carmine spider mite” value with carmine spider mite (600 ppm) was 100%. Moreover, the “protectant activity against wheat powdery mildew in vivo” value in the assay on wheat powdery mildew (400 ppm) came out at 100%. Moreover, the “control (test results against green peach aphid)” value in assay [1] (100 ppm) and in assay [1] (600 ppm) was 100% in each case. Also, the “protectant activity against corn rust in vivo” value in the assay with corn rust (400 ppm) is 100%. Moreover, in the assay on Diamond back moth, the “control (test results against diamond back moth)” value is reported as 100%.
In the case of `Cc1nc(Cl)c(Cl)c(NCCc2ccc(Oc3ccc(Cl)cc3)nc2)n1` [III-2527], the “control (test results against armyworm)” value in the assay on armyworm is listed as 100%. Further, the “control effect against cucumber downy mildew (%)” value in the assay with cucumber downy mildew (6.25 mg/L, protectant activity) came out at 75%; in the assay with cucumber downy mildew (12.5 mg/L, protectant activity) it was 100%; in the assay on cucumber downy mildew (25 mg/L, protectant activity), 100%; in the assay with cucumber downy mildew (50 mg/L, protectant activity), 100%; in the assay with cucumber downy mildew (100 mg/L, protectant activity), 100%; with cucumber downy mildew (400 mg/L, protectant activity), 100%. Also, the “protectant activity against cucumber downy mildew in vivo” value in the assay on cucumber downy mildew (12.5 ppm), in the assay with cucumber downy mildew (25 ppm), in the assay with cucumber downy mildew (50 ppm), in the assay with cucumber downy mildew (100 ppm) and in the assay on cucumber downy mildew (400 ppm) was 100% each time. The “control (test results against green peach aphid)” value in assay [1] (600 ppm) was determined as 100%. Also, the “control (test results against diamond back moth)” value in the assay with Diamond back moth came to 100%.
